Test results reported in ChEMBL document CHEMBL6127052, “Discovery of membrane-targeting amphiphilic honokiol derivatives containing an oxazolethione moiety to combat methicillin-resistant Staphylococcus aureus (MRSA) infections” (Eur J Med Chem, 2024).
Active and inactive are the calls of the source. The calls are words filed in the database; no cut-off is given here.

Columns and labels:
[1] = Toxicity in KM mouse assessed as clear skin section at 20 mg/kg, sc measured after 24 hrs by H and E staining based analysis; format: organism-based; conditions: in vivo
[2] = test system: Staphylococcus aureus; assay: Antibacterial activity against methicillin-resistant Staphylococcus aureus clinical isolate M16 by CLSI based micro-broth dilution method; format: functional
[3] = Toxicity in KM mouse assessed as pathological change in white medulla of spleen at 20 mg/kg, sc measured after 24 hrs by H and E staining based analysis; format: organism-based; conditions: in vivo
[4] = Toxicity in BALB/c mouse assessed as change in mental status at <15 mg/kg, ip bid for 7 days; format: organism-based; conditions: in vivo, 168 h, time 7 day
[5] = Toxicity in BALB/c mouse assessed as loss of lustrous hair at 40 mg/kg, ip bid for 7 days; format: organism-based; conditions: in vivo, 168 h, time 7 day
[6] = Toxicity in BALB/c mouse assessed as pathological change in red medulla of spleen at 15 mg/kg, ip bid for 7 days; format: organism-based; conditions: in vivo, 168 h, time 7 day
[7] = Toxicity in KM mouse assessed as inflammatory cell infiltration in lung epithelial cells at 20 mg/kg, sc measured after 24 hrs by H and E staining based analysis; format: organism-based; conditions: in vivo
[8] = Toxicity in BALB/c mouse assessed as necrosis in hepatocytes at 15 mg/kg, ip bid for 7 days; format: organism-based; conditions: in vivo, 168 h, time 7 day
[9] = Toxicity in KM mouse assessed as degeneration in cardiac muscle fibers at 20 mg/kg, sc measured after 24 hrs by H and E staining based analysis; format: organism-based; conditions: in vivo
[10] = Toxicity in sepsis BALB/c mouse model infected with methicillin-resistant Staphylococcus aureus clinical isolate M12 assessed as survival rate at 12 mg/kg, ip administered consecutively at 12 hr-interval for 7 days measured after 24 hrs post-last dose; format: organism-based; conditions: in vivo, 192 h, time 8 day
[11] = Toxicity in BALB/c mouse assessed as knotted hair at 40 mg/kg, ip bid for 7 days; format: organism-based; conditions: in vivo, 168 h, time 7 day
[12] = Toxicity in BALB/c mouse assessed as inflammatory cell infiltration in hepatocytes at 15 mg/kg, ip bid for 7 days; format: organism-based; conditions: in vivo, 168 h, time 7 day
[13] = Toxicity in KM mouse infected with methicillin-resistant Staphylococcus aureus clinical isolate M12 assessed as damage in spleen at 5 to 10 mg/kg, sc measured after 24 hrs by H and E staining based analysis; format: organism-based; conditions: in vivo, dose 5-10 mg/kg
[14] = test system: Staphylococcus aureus; assay: Antibacterial activity against methicillin-resistant Staphylococcus aureus clinical isolate M12 infected in KM mouse assessed as decrease in bacterial load in skin tissues at 5 mg/kg, sc measured after 24 hrs by drop-plate counting method (reference value: 6.7); format: functional
[15] = test system: Staphylococcus aureus; assay: (§1) Antibacterial activity against methicillin-resistant Staphylococcus aureus clinical isolate M12 infected in sepsis BALB/c mouse model assessed as decrease in degeneration of hepatocytes at 12 mg/kg, ip administered consecutively at 12 hr-interval for 24 hrs measured after 24 hrs post-last dose by H and E staining based analysis; format: functional, organism-based; conditions: time 48.0 hrs
[16] = test system: Staphylococcus aureus; assay: Bactericidal activity against Staphylococcus aureus ATCC 29213 at 8 times MIC incubated upto 8 hrs by time-kill assay; format: functional, organism-based
[17] = test system: Staphylococcus aureus; assay: Antibacterial activity against methicillin-resistant Staphylococcus aureus clinical isolate M12 infected in sepsis BALB/c mouse model assessed as decrease in bacterial load in liver at 12 mg/kg, ip administered consecutively at 12 hr-interval for 24 hrs measured after 24 hrs post-last dose; format: functional; conditions: time 48 hrs
[18] = Toxicity in KM mouse assessed as change in HCT level at 20 mg/kg, sc measured after 24 hrs; format: organism-based; conditions: in vivo
[19] = test system: Staphylococcus aureus; assay: Antibacterial activity against methicillin-resistant Staphylococcus aureus clinical isolate M11 by CLSI based micro-broth dilution method; format: functional
[20] = Toxicity in KM mouse assessed as degeneration of hepatocytes at 20 mg/kg, sc measured after 24 hrs by H and E staining based analysis; format: organism-based; conditions: in vivo
[21] = Toxicity in KM mouse infected with methicillin-resistant Staphylococcus aureus clinical isolate M12 assessed as histopathological abnormality in liver at 5 to 10 mg/kg, sc measured after 24 hrs by H and E staining based analysis; format: organism-based; conditions: in vivo, dose 5-10 mg/kg
[22] = test system: Staphylococcus aureus; assay: Disruption of cell membrane in methicillin-resistant Staphylococcus aureus clinical isolate M12 assessed as fold increase in intracellular ROS level at 128 ug/ml incubated for 40 mins by DCFH-DA probe based analysis relative to control; format: functional; conditions: dose 128 µg/ml
[23] = test system: Staphylococcus aureus; assay: Antibacterial activity against methicillin-resistant Staphylococcus aureus clinical isolate M12 infected in KM mouse assessed as decrease in bacterial survival rate at 5 mg/kg, sc measured after 24 hrs by drop-plate counting method relative to control; format: functional
[24] = test system: Staphylococcus aureus; assay: Antibacterial activity against methicillin-resistant Staphylococcus aureus clinical isolate M23 by CLSI based micro-broth dilution method; format: functional
[25] = test system: Staphylococcus aureus; assay: Bactericidal activity against methicillin-resistant Staphylococcus aureus clinical isolate M12 infected in KM mouse assessed as decrease in inflammatory cells in epidermis at 10 mg/kg, sc measured after 24 hrs; format: functional, organism-based
[26] = Toxicity in KM mouse infected with methicillin-resistant Staphylococcus aureus clinical isolate M12 assessed as histopathological abnormality in kidney at 5 to 10 mg/kg, sc measured after 24 hrs by H and E staining based analysis; format: organism-based; conditions: in vivo, dose 5-10 mg/kg
[27] = test system: Staphylococcus aureus; assay: Antibacterial activity against methicillin-resistant Staphylococcus aureus clinical isolate M12 infected in sepsis BALB/c mouse model assessed as decrease in deformation of hepatocytes at 6 mg/kg, ip administered consecutively at 12 hr-interval for 24 hrs measured after 24 hrs post-last dose by H and E staining based analysis; format: functional, organism-based; conditions: time 48.0 hrs
[28] = Toxicity in BALB/c mouse assessed as degeneration of renal tubular epithelial cells at 15 mg/kg, ip bid for 7 days; format: organism-based; conditions: in vivo, 168 h, time 7 day
[29] = Toxicity in KM mouse assessed as inflammatory cells in skin section at 20 mg/kg, sc measured after 24 hrs by H and E staining based analysis; format: organism-based; conditions: in vivo
[30] = test system: Staphylococcus aureus; assay: Antibacterial activity against methicillin-resistant Staphylococcus aureus clinical isolate M12 incubated for 16 to 18 hrs in presence of phosphatidylglycerol; format: functional; conditions: time 16-18 hrs
[31] = Toxicity in KM mouse assessed as degeneration of renal tubular epithelial cells at 20 mg/kg, sc measured after 24 hrs by H and E staining based analysis; format: organism-based; conditions: in vivo
[32] = Toxicity in KM mouse infected with methicillin-resistant Staphylococcus aureus clinical isolate M12 assessed as damage in lung at 5 to 10 mg/kg, sc measured after 24 hrs by H and E staining based analysis; format: organism-based; conditions: in vivo, dose 5-10 mg/kg
[33] = test system: Staphylococcus aureus; assay: Induction of membrane depolarization in methicillin-resistant Staphylococcus aureus clinical isolate M12 at 32 times MIC measured for 10 mins by DiSC3(5) dye based analysis; format: functional, organism-based
[34] = test system: Staphylococcus aureus; assay: as §1, with “pathological change in red medulla” for “degeneration”, “spleen” for “hepatocytes”; format: functional, organism-based; conditions: time 48.0 hrs
[35] = Toxicity in KM mouse assessed as formation of hard lumps at administration site at >40 mg/kg, sc; format: organism-based; conditions: in vivo
[36] = test system: Staphylococcus aureus; assay: Antibacterial activity against methicillin-resistant Staphylococcus aureus clinical isolate M12 infected in KM mouse assessed as reduction in IL-6 level at infection site at 10 mg/kg, sc measured after 24 hrs by ELISA; format: functional
[37] = Toxicity in KM mouse assessed as change in urea level at 20 mg/kg, sc measured after 24 hrs; format: organism-based; conditions: in vivo
[38] = test system: Staphylococcus aureus; assay: Bactericidal activity against methicillin-resistant Staphylococcus aureus clinical isolate M12 at 8 times MIC incubated upto 8 hrs by time-kill assay; format: functional, organism-based

With C=CCc1cc(-c2ccc(OCCC[N+](C)(C)CC(=O)NCCCC)c(CC=C)c2)c2oc(=S)n(Cc3ccc(F)cc3)c2c1.[Br-] the Activity [1] was “Non-Toxic”, the MIC [2] was 2 µg/mL and the Activity [3] was “Non-Toxic”. For the same molecule, the Activity [4] was “Non-Toxic”, the Activity [5] was “Toxic” and the Activity [6] was “Non-Toxic”. The Activity [7] was “Non-Toxic”, the Activity [8] was “Non-Toxic” and the Activity [9] was “Non-Toxic”. The Survival [10] was 33.3%, the Activity [11] was “Toxic” and the Activity [12] was “Non-Toxic”. The Activity [13] was “Non-Toxic”, the Activity [14] was 1.4 log10CFU/g and the Activity [15] was “Active”. The Activity [16] was “Active”, the Activity [17] was 1.62 log10CFU/g and the Activity [18] was “Non-Toxic”. The MIC [19] was 4 µg/mL, the Activity [20] was “Non-Toxic” and the Activity [21] was “Non-Toxic”. For the same molecule, the “fold change (FC)” value [22] was about 1.8, the Activity [23] was 92.72% and the MIC [24] was 2 µg/mL. The Activity [25] was “Active”, the Activity [26] was “Non-Toxic” and the Activity [27] was “inactive”. For the same molecule, the Activity [28] was “Non-Toxic”, the Activity [29] was “Non-Toxic” and the MIC [30] was 128 µg/mL. The Activity [31] was “Non-Toxic”, the Activity [32] was “Non-Toxic” and the Activity [33] was “Active”. For the same molecule, the Activity [34] was “Active”, the Activity [35] was “Toxic” and the Activity [36] was 66.7 pg/mL. The Activity [37] was “Non-Toxic” and the Activity [38] was “Active”.
